Experimental data: ChEMBL document CHEMBL1154503, “Calmodulin inhibitors from the fungus Emericella sp” (Bioorg Med Chem, 2009)
pIC50, pKi: −log10 of the molar value.

Key:
Calmodulin-1 [1] = target: T1, Calmodulin-1 (Homo sapiens, UniProt P0DP23); assay: Inhibition of recombinant calmodulin mediated bovine brain PDE1 activation assessed as effect on inorganic phosphate release by spectrophotometry
Calmodulin-1 [2] = target: T1, Calmodulin-1; assay: Inhibition of recombinant calmodulin mediated bovine brain PDE1 activation assessed as effect on inorganic phosphate release using variable calmodulin level by spectrophotometry

| pIC50 (Calmodulin-1 [1]) | pKi (Calmodulin-1 [2]) | Structure (SMILES) |
| --- | --- | --- |
| 5.02 | – | C=C(C)[C@H]1COc2c(C)cc3oc4c(C[C@H](Cl)C(C)(C)O)ccc(O)c4c(=O)c3c2[C@@H]1O |
| 5.26 | 4.60 | C=C(C)[C@H]1COc2c(C)cc3oc4c([C@H](OC)[C@@H]5OC5(C)C)ccc(O)c4c(=O)c3c2[C@@H]1O |
| 4.54 | – | C=C(C)[C@H]1COc2c(C)cc3oc4c(CC=C(C)C)ccc(O)c4c(=O)c3c2[C@@H]1O [SHAMIXANTHONE] |
| 5.25 | 4.86 | C=C(C)[C@H]1COc2c(C)cc3oc4c(C[C@H](O)C(C)(C)O)ccc(O)c4c(=O)c3c2[C@@H]1O [TAJIXANTHONE HYDRATE] |
